The values that follow come from patent US11077090B2, “Compounds and compositions and uses thereof” (Sunovion Pharmaceuticals Inc., priority 2016, dated 2021).

Some results are limits rather than exact numbers.

One experiment relates to compound-treated mice. Put plainly: Neuropharmacological assay (SmartCube): behavioral activity signature and minimal effective dose. In kind it is in vivo. As to conditions: Mus musculus, ip, MED = dose having 50% or more total activity, read-out: Potency: minimal effective dose (MED), binned. A digest of the protocol:
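Video-recorded behavior is compared algorithmically against a reference-compound database, yielding class probabilities (best dose reported). Compounds given i.p. in NMP/PEG/propylene glycol 15 min pre-test at 3 doses; potency as MED, the dose (mpk, range usually 0.3–30) reaching ≥50% total activity.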
For the molecule `Cc1cc2c(cc1C)[C@H](N)[C@H](C)OC2.Cl` [Example 237], the minimal effective dose (in general, the lowest level tested that produced the effect sought) was in the range of 10 to 30 mg/kg.
The same measure, in the same setting: then `Cc1cc2c(cc1C)[C@H](N)[C@@H](C)OC2.Cl` [Example 238], with 10 to 30 mg/kg; and `C[C@@H]1OCc2ccc3c(c2[C@@H]1N)CCCO3.Cl` [Example 248], with 10 to 30 mg/kg; and `C[C@H]1OCc2ccc3c(c2[C@@H]1N)CCCO3.Cl` [Example 249], with 3 to 10 mg/kg.
The same measure, in the same setting: in the case of `CCC[C@@H]1OCc2ccccc2[C@@H]1N` [Example 250] it was 3 to 10 mg/kg.
Take `Cc1ccc2c(c1)CO[C@H](C)[C@H]2N` [Example 252]: the minimal effective dose was under 3 mg/kg.
Still for that read-out and setting: in the case of `Cc1ccc2c(c1)CO[C@@H](C)[C@@H]2N` [Example 253] it was 3 to 10 mg/kg; in that of `Cc1cccc2c1[C@H](C)OC[C@@H]2N` [Example 255], 10 to 30 mg/kg; in that of `CC[C@@H]1OCc2ccccc2[C@@H]1NC.Cl` [Example 258], 3 to 10 mg/kg.
On the same count and under the same terms, in the case of `CC[C@H]1OCc2ccccc2[C@@H]1NC.Cl` [Example 259] it was 10 to 30 mg/kg; in that of `CCCN[C@@H]1COCc2ccccc21.Cl` [Example 262], 10 to 30 mg/kg.
The same measure, in the same setting: in the case of `C#CCN[C@@H]1COCc2ccccc21.Cl` [Example 263] it was under 3 mg/kg.
As for `CCCN[C@@H]1c2ccccc2CO[C@H]1C.Cl` [Example 264], the minimal effective dose lay in the range of 3 to 10 mg/kg.

The experiment is the same for the next values; noted with them: i.p. 15 min before test, most efficacious dose(s).
Regarding `Cc1cc2c(cc1C)[C@H](N)[C@H](C)OC2.Cl` [Example 237], the “AD: ADHD (probability of activity signature)” value (shortened to “AD: ADHD”) is given as “+ (LOQ ≤ + <5%)”, the “AG: analgesic (probability of activity signature)” value (“AG: analgesic” below) was “+ (LOQ ≤ + <5%)”, the “AX: anxiolytic (probability of activity signature)” value (shortened to “AX: anxiolytic”) was “++ (5% ≤ ++ <25%)” and the “CE: cognitive enhancer (probability of activity signature)” value (from here on “CE: cognitive enhancer”) is on record as “+ (LOQ ≤ + <5%)”. For the same molecule, the “DP: anti-depressant (probability of activity signature)” value (“DP: anti-depressant” for short) is recorded as “+ (LOQ ≤ + <5%)”, the “MS: mood stabilizer (probability of activity signature)” value (from here on “MS: mood stabilizer”) is on record as “+ (LOQ ≤ + <5%)”, the “PS: anti-psychotic (probability of activity signature)” value (from here on “PS: anti-psychotic”) was “++ (5% ≤ ++ <25%)” and the “SD: sedative hypnotic (probability of activity signature)” value (“SD: sedative hypnotic” for short) was “+++ (25% ≤ +++ <50%)”. Moreover, the “UN: uncharacterized CNS activity (probability of activity signature)” value (“UN: uncharacterized CNS activity” below) is reported as “++ (5% ≤ ++ <25%)”.
With `Cc1cc2c(cc1C)[C@H](N)[C@@H](C)OC2.Cl` [Example 238], the “AD: ADHD” value is on record as “+ (LOQ ≤ + <5%)”, the “AG: analgesic” value is given as “+ (LOQ ≤ + <5%)”, the “AX: anxiolytic” value is listed as “++ (5% ≤ ++ <25%)” and the “CE: cognitive enhancer” value is reported as “++ (5% ≤ ++ <25%)”. For the same molecule, the “DP: anti-depressant” value is given as “+ (LOQ ≤ + <5%)”, the “MS: mood stabilizer” value is “+ (LOQ ≤ + <5%)”, the “PS: anti-psychotic” value is recorded as “++ (5% ≤ ++ <25%)” and the “SD: sedative hypnotic” value was “+ (LOQ ≤ + <5%)”. For the same molecule, the “UN: uncharacterized CNS activity” value is recorded as “++++ (50% ≤ ++++)”.
In the case of `C[C@@H]1OCc2ccc3c(c2[C@@H]1N)CCCO3.Cl` [Example 248], the “AD: ADHD” value is listed as “+ (LOQ ≤ + <5%)”, the “AG: analgesic” value was “++ (5% ≤ ++ <25%)”, the “AX: anxiolytic” value is listed as “++ (5% ≤ ++ <25%)” and the “CE: cognitive enhancer” value is given as “++ (5% ≤ ++ <25%)”. Besides, the “DP: anti-depressant” value was “+ (LOQ ≤ + <5%)”, the “MS: mood stabilizer” value is listed as “+ (LOQ ≤ + <5%)”, the “PS: anti-psychotic” value is reported as “+ (LOQ ≤ + <5%)” and the “SD: sedative hypnotic” value was “+ (LOQ ≤ + <5%)”. For the same molecule, the “UN: uncharacterized CNS activity” value is listed as “+++ (25% ≤ +++ <50%)”.
As for `C[C@H]1OCc2ccc3c(c2[C@@H]1N)CCCO3.Cl` [Example 249], the “AD: ADHD” value is “+ (LOQ ≤ + <5%)”, the “AG: analgesic” value is reported as “++ (5% ≤ ++ <25%)”, the “AX: anxiolytic” value is “++ (5% ≤ ++ <25%)” and the “CE: cognitive enhancer” value was “++ (5% ≤ ++ <25%)”. Moreover, the “DP: anti-depressant” value is recorded as “+ (LOQ ≤ + <5%)”, the “MS: mood stabilizer” value was “+ (LOQ ≤ + <5%)”, the “PS: anti-psychotic” value is given as “++ (5% ≤ ++ <25%)” and the “SD: sedative hypnotic” value is recorded as “+ (LOQ ≤ + <5%)”. Also, the “UN: uncharacterized CNS activity” value was “+++ (25% ≤ +++ <50%)”.
Consider `CCC[C@@H]1OCc2ccccc2[C@@H]1N` [Example 250], for which the “AD: ADHD” value is reported as “++ (5% ≤ ++ <25%)”, the “AG: analgesic” value was “+ (LOQ ≤ + <5%)”, the “AX: anxiolytic” value is “++ (5% ≤ ++ <25%)” and the “CE: cognitive enhancer” value is listed as “+ (LOQ ≤ + <5%)”. Also, the “DP: anti-depressant” value is given as “+ (LOQ ≤ + <5%)”, the “MS: mood stabilizer” value is “++ (5% ≤ ++ <25%)”, the “PS: anti-psychotic” value is “++ (5% ≤ ++ <25%)” and the “SD: sedative hypnotic” value is “++ (5% ≤ ++ <25%)”. Besides, the “UN: uncharacterized CNS activity” value was “+ (LOQ ≤ + <5%)”.
As to `Cc1ccc2c(c1)CO[C@H](C)[C@H]2N` [Example 252], the “AD: ADHD” value was “+ (LOQ ≤ + <5%)”, the “AG: analgesic” value is given as “+ (LOQ ≤ + <5%)”, the “AX: anxiolytic” value is “+ (LOQ ≤ + <5%)” and the “CE: cognitive enhancer” value was “+ (LOQ ≤ + <5%)”. Also, the “DP: anti-depressant” value is given as “++ (5% ≤ ++ <25%)”, the “MS: mood stabilizer” value is on record as “++ (5% ≤ ++ <25%)”, the “PS: anti-psychotic” value is “++ (5% ≤ ++ <25%)” and the “SD: sedative hypnotic” value is “++ (5% ≤ ++ <25%)”. For the same molecule, the “UN: uncharacterized CNS activity” value is given as “++++ (50% ≤ ++++)”.
Turning to `Cc1ccc2c(c1)CO[C@@H](C)[C@@H]2N` [Example 253], the “AD: ADHD” value is “+ (LOQ ≤ + <5%)”, the “AG: analgesic” value is “+ (LOQ ≤ + <5%)”, the “AX: anxiolytic” value is on record as “+ (LOQ ≤ + <5%)” and the “CE: cognitive enhancer” value was “+ (LOQ ≤ + <5%)”. Also, the “DP: anti-depressant” value is given as “++ (5% ≤ ++ <25%)”, the “MS: mood stabilizer” value is “++ (5% ≤ ++ <25%)”, the “PS: anti-psychotic” value is “++ (5% ≤ ++ <25%)” and the “SD: sedative hypnotic” value is “++ (5% ≤ ++ <25%)”. For the same molecule, the “UN: uncharacterized CNS activity” value is recorded as “++ (5% ≤ ++ <25%)”.
For `Cc1cccc2c1[C@H](C)OC[C@@H]2N` [Example 255], the “AD: ADHD” value is “+ (LOQ ≤ + <5%)”, the “AG: analgesic” value is reported as “+ (LOQ ≤ + <5%)”, the “AX: anxiolytic” value is given as “+ (LOQ ≤ + <5%)” and the “CE: cognitive enhancer” value is “+ (LOQ ≤ + <5%)”. Moreover, the “DP: anti-depressant” value is “+ (LOQ ≤ + <5%)”, the “MS: mood stabilizer” value was “+ (LOQ ≤ + <5%)”, the “PS: anti-psychotic” value was “+ (LOQ ≤ + <5%)” and the “SD: sedative hypnotic” value was “++ (5% ≤ ++ <25%)”. For the same molecule, the “UN: uncharacterized CNS activity” value is listed as “++ (5% ≤ ++ <25%)”.
`CC[C@@H]1OCc2ccccc2[C@@H]1NC.Cl` [Example 258]: the “AD: ADHD” value is “+ (LOQ ≤ + <5%)”, the “AG: analgesic” value is “+ (LOQ ≤ + <5%)”, the “AX: anxiolytic” value was “+ (LOQ ≤ + <5%)” and the “CE: cognitive enhancer” value was “+ (LOQ ≤ + <5%)”. Moreover, the “DP: anti-depressant” value is listed as “++ (5% ≤ ++ <25%)”, the “MS: mood stabilizer” value is on record as “++ (5% ≤ ++ <25%)”, the “PS: anti-psychotic” value was “+ (LOQ ≤ + <5%)” and the “SD: sedative hypnotic” value is “++ (5% ≤ ++ <25%)”. Also, the “UN: uncharacterized CNS activity” value is recorded as “+ (LOQ ≤ + <5%)”.
`CC[C@H]1OCc2ccccc2[C@@H]1NC.Cl` [Example 259]: the “AD: ADHD” value is “+ (LOQ ≤ + <5%)”, the “AG: analgesic” value is recorded as “+ (LOQ ≤ + <5%)”, the “AX: anxiolytic” value was “+ (LOQ ≤ + <5%)” and the “CE: cognitive enhancer” value is “+ (LOQ ≤ + <5%)”. For the same molecule, the “DP: anti-depressant” value is reported as “++ (5% ≤ ++ <25%)”, the “MS: mood stabilizer” value is listed as “+ (LOQ ≤ + <5%)”, the “PS: anti-psychotic” value is listed as “+ (LOQ ≤ + <5%)” and the “SD: sedative hypnotic” value is reported as “+++ (25% ≤ +++ <50%)”. The “UN: uncharacterized CNS activity” value was “++ (5% ≤ ++ <25%)”.
With `CCCN[C@@H]1COCc2ccccc21.Cl` [Example 262], the “AD: ADHD” value is listed as “+ (LOQ ≤ + <5%)”, the “AG: analgesic” value is “+ (LOQ ≤ + <5%)”, the “AX: anxiolytic” value was “+ (LOQ ≤ + <5%)” and the “CE: cognitive enhancer” value was “+ (LOQ ≤ + <5%)”. Also, the “DP: anti-depressant” value was “++ (5% ≤ ++ <25%)”, the “MS: mood stabilizer” value is “+ (LOQ ≤ + <5%)”, the “PS: anti-psychotic” value was “+ (LOQ ≤ + <5%)” and the “SD: sedative hypnotic” value is reported as “++ (5% ≤ ++ <25%)”. Moreover, the “UN: uncharacterized CNS activity” value is given as “++ (5% ≤ ++ <25%)”.
Consider `C#CCN[C@@H]1COCc2ccccc21.Cl` [Example 263], for which the “AD: ADHD” value is reported as “+ (LOQ ≤ + <5%)”, the “AG: analgesic” value is “+ (LOQ ≤ + <5%)”, the “AX: anxiolytic” value is listed as “+ (LOQ ≤ + <5%)” and the “CE: cognitive enhancer” value is “+ (LOQ ≤ + <5%)”. Further, the “DP: anti-depressant” value is listed as “+ (LOQ ≤ + <5%)”, the “MS: mood stabilizer” value is “+ (LOQ ≤ + <5%)”, the “PS: anti-psychotic” value is given as “+ (LOQ ≤ + <5%)” and the “SD: sedative hypnotic” value is reported as “++ (5% ≤ ++ <25%)”. In addition, the “UN: uncharacterized CNS activity” value is recorded as “+ (LOQ ≤ + <5%)”.
Consider `CCCN[C@@H]1c2ccccc2CO[C@H]1C.Cl` [Example 264], for which the “AD: ADHD” value is listed as “++ (5% ≤ ++ <25%)”, the “AG: analgesic” value is “+ (LOQ ≤ + <5%)”, the “AX: anxiolytic” value is reported as “++ (5% ≤ ++ <25%)” and the “CE: cognitive enhancer” value is given as “+ (LOQ ≤ + <5%)”. Moreover, the “DP: anti-depressant” value was “++ (5% ≤ ++ <25%)”, the “MS: mood stabilizer” value is given as “++ (5% ≤ ++ <25%)”, the “PS: anti-psychotic” value is on record as “+++ (25% ≤ +++ <50%)” and the “SD: sedative hypnotic” value is “++ (5% ≤ ++ <25%)”. The “UN: uncharacterized CNS activity” value is recorded as “+ (LOQ ≤ + <5%)”.
